Paper PMC7823652 (Viruses, 2020)
Read-outs that look alike come from different tables or passages of the source.

Key:
[1] = Cell viability assay (Resazurin), uninfected U87 cells; format: cell-based, Human; settings: human, read-out: Viability CC50 [µM] (95%-CI); for CC50 at 24 h: uninfected U87, 24 h; for CC50 at 48 h: uninfected U87, 48 h; for CC50 at 72 h: uninfected U87, 72 h
[2] = tested on: ZIKV; assay: Image-based phenotypic antiviral screen in ZIKV-infected U87 cells; format: cell-based, Zika virus (strain H/PF/2013); settings: for Infected Cells (U87, ZIKV) / Viral Titer (ZIKV): screen, U87 cells; for inhibition at 10 µM: Zika virus, U-87 MG
[3] = tested on: Vero cells; assay: Cell viability by nuclei count in ZIKV-infected Vero cells; format: cell-based, African Green Monkey
[4] = in vitro; settings: human
[5] = tested on: ZIKV; assay: Time-of-addition assay in ZIKV-infected U87 cells; format: cell-based, Zika virus (strain H/PF/2013)
[6] = tested on: ZIKV; assay: Time course of ZIKV replication in U87 cells (vRNA, infected cells, titer)
[7] = tested on: ZIKV; assay: Antiviral dose-response in ZIKV-infected U87 cells (infected cells, viral titer); format: cell-based, Zika virus (strain H/PF/2013); settings: for EC50: U87, ZIKV MOI 1, 48 h
[8] = tested on: U87 cells; assay: Cell viability by nuclei count in ZIKV-infected U87 cells; format: cell-based, Human
[9] = Screen cytotoxicity by nuclei count in ZIKV-infected U87 cells; format: cell-based; settings: human; for viability at 48 h, 10 µM / viability at 10 µM: ZIKV-infected U87 cells; for viability at 48 h, 10 µM: ZIKV MOI 10, compound 10 µM, nuclei count relative to DMSO; for viability at 10 µM: screen
[10] = tested on: ZIKV; assay: Antiviral dose-response in ZIKV-infected Vero cells; format: cell-based, Zika virus (strain H/PF/2013); settings: Zika virus, 48 h
[11] = tested on: HAZV; assay: microbe, parasite or virus in culture; format: cell-based, Hazara virus (isolate JC280); settings: for inhibition at 10 µM: Hazara virus, SW13, 24 h; for Infected Cells (SW13, HAZV) / Viral Titer (HAZV): screen, SW13 cells
[12] = tested on: ZIKV; assay: ZIKV infection (NS1 intensity) and viral titer in human cerebral organoids; format: cell-based, Zika virus (strain H/PF/2013); settings: ZIKV 2 × 10^4 particles/organoid, 5 μM, all timepoints, relative to DMSO
[13] = tested on: U87 cells; assay: Cell viability assay (Resazurin), uninfected U87 cells; format: cell-based, Human; settings: for CC50: read-out: Viability CC50 [µM] (95%-CI)
[14] = target: hOGG1 (Homo sapiens, UniProt O15527); assay: hOGG1 IC50 (listed in supplementary data, method not described); format: biochemical
[15] = tested on: human brain organoids; assay: Viability and structure of ZIKV-infected human cerebral organoids; settings: ZIKV 2 × 10^4 particles/organoid, 5 μM, 7 dpi and 10 dpi
[16] = U87, ZIKV MOI 10, 100 µM Ribavirin (positive control), 48 h
[17] = ZIKV MOI 10, 100 µM Ribavirin (positive control), 48 h
[18] = U87, ZIKV MOI 1, from 24 hpi and onwards
[19] = read-out: Inhibition of HAZV titer (%)
[20] = read-out: Inhibition of primary HAZV infection (%)
[21] = U87, ZIKV MOI 10, compound 10 µM, 48 h, relative to DMSO
[22] = ZIKV MOI 10, compound 10 µM, 48 h, relative to DMSO
[23] = U87, ZIKV MOI 10, compound 10 µM, 48 h, relative to DMSO, read-out: Inhibition of ZIKV titer (%)
[24] = U87, ZIKV MOI 10, compound 10 µM, 48 h, relative to DMSO, read-out: Inhibition of primary ZIKV infection (%)
[25] = Zika virus, U-87 MG, 48 h, read-out: Antiviral on primary infection IC50 [µM], ZIKV, U87, MOI 10, 48 h
[26] = Zika virus, U-87 MG, 48 h, read-out: Antiviral on titer (µM) IC50 [µM], ZIKV, U87, MOI 10, 48 h
[27] = Zika virus, U-87 MG, ZIKV NS1 staining, read-out: EC50 [μM] Infected cells
[28] = Zika virus, U-87 MG, end-point dilution assay, read-out: EC50 [μM] Viral titer
[29] = Homo sapiens, U-87 MG, 48 h, read-out: Viability (nuclei count) EC50 [µM]

hOGG1, sequence (O15527 whole entry): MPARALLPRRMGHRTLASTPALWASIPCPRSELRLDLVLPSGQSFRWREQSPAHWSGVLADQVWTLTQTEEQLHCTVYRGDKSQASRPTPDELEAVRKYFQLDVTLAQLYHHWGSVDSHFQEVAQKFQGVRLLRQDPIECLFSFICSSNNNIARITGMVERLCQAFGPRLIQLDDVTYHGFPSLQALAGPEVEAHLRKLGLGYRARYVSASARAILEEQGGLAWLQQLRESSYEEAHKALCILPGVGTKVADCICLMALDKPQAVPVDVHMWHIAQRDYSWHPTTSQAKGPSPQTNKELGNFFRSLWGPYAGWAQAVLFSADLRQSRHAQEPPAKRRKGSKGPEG

Question: With `NC(=O)c1ncn([C@@H]2O[C@H](CO)[C@@H](O)[C@H]2O)n1` [Ribavirin, reference compound] as the molecule, how does the CC50 at 24 h ([1]; uninfected U87 cells) read?
Answer: > 300 µM

Question: And the CC50 at 48 h ([1]; uninfected U87 cells)?
Answer: > 300 µM

Question: What about the CC50 at 72 h ([1]; uninfected U87 cells) of the same molecule?
Answer: > 300 µM

Question: And the “Inhibition of ZIKV titer (%)” value [2, 16]?
Answer: 63%

Question: And the “Inhibition of primary ZIKV infection (%)” value [2, 16]?
Answer: 60%

Question: What about the “Viral Titer (ZIKV) (%)” value [2, 16] of the same molecule?
Answer: 37%

Question: And the “Infected Cells (U87, ZIKV) (%)” value [2, 17]?
Answer: 40%

Question: And the “Infected Cells (U87, ZIKV)” value [2]?
Answer: 40%

Question: What about the “Viral Titer (ZIKV)” value [2] of the same molecule?
Answer: 37%

Question: What about the EC50 ([3]; Chlorocebus sabaeus, MOI 10, 48 h) of the same molecule?
Answer: > 200 µM

Question: What about the EC50 ([3]; MOI 1, 48 h) of the same molecule?
Answer: > 200 µM

Question: What about the viability at 10 µM [4] of the same molecule?
Answer: 99%

Question: And the viability at 24 h, 10 µM [4]?
Answer: 99%

Question: What about the “reduction of ZIKV titers, post-inoculation step” value ([5]; U87, ZIKV MOI 10, 100 μM Ribavirin for 24 h after inoculation) of the same molecule?
Answer: 80%

Question: And the “effect on viral titer, later steps (budding)” value ([5]; U87, ZIKV MOI 10, 100 μM Ribavirin from 22 h for 2 h)?
Answer: no effect

Question: And the “effect on viral titer, entry steps” value ([5]; U87, ZIKV MOI 10, 100 μM Ribavirin, pre-treatment and during inoculation)?
Answer: no effect

Question: And the “intracellular vRNA levels” value ([6]; U87, ZIKV MOI 1, all timepoints (24, 48, 72 h))?
Answer: reduced

Question: And the ZIKV titers [6, 18]?
Answer: reduced

Question: What about the “extracellular vRNA” value [6, 18] of the same molecule?
Answer: reduced

Question: And the IC50 ([7]; Zika virus, U-87 MG, 48 h, ZIKV, U87, MOI 1, 48 h, read-out: Antiviral on primary infection IC50)?
Answer: 60.7 µM

Question: What about the IC50 ([7]; Zika virus, U-87 MG, 48 h, ZIKV, U87, MOI 1, 48 h, read-out: Antiviral on titer (µM) IC50) of the same molecule?
Answer: 52.8 µM

Question: And the IC50 ([7]; Zika virus, U-87 MG, 48 h, ZIKV, U87, MOI 10, 48 h, read-out: Antiviral on primary infection IC50)?
Answer: 59.2 µM

Question: What about the IC50 ([7]; Zika virus, U-87 MG, 48 h, ZIKV, U87, MOI 10, 48 h, read-out: Antiviral on titer (µM) IC50) of the same molecule?
Answer: 31.1 µM

Question: What about the EC50 ([8]; Homo sapiens, U-87 MG, ZIKV, U87, MOI 10, 48 h, read-out: Viability (nuclei count) EC50) of the same molecule?
Answer: > 200 µM

Question: And the EC50 ([8]; ZIKV, U87, MOI 1, 48 h, read-out: Viability (nuclei count) EC50)?
Answer: > 200 µM

Question: And the viability at 48 h, 100 µM [9, 17]?
Answer: 91%

Question: What about the IC50 ([10]; MOI 1, 48 h, read-out: Antiviral on primary infection IC50) of the same molecule?
Answer: 52.6 µM

Question: And the IC50 ([10]; MOI 1, 48 h, read-out: Antiviral on titer (µM) IC50)?
Answer: 21 µM

Question: What about the IC50 ([10]; MOI 10, 48 h, read-out: Antiviral on primary infection IC50) of the same molecule?
Answer: 65.1 µM

Question: And the IC50 ([10]; MOI 10, 48 h, read-out: Antiviral on titer (µM) IC50)?
Answer: 41 µM

Question: What about the inhibition at 10 µM [11, 19] of the same molecule?
Answer: 98%

Question: What about the inhibition at 10 µM [11, 20] of the same molecule?
Answer: 47%

Question: And the “Infected Cells (SW13, HAZV)” value [11]?
Answer: 53%

Question: What about the “Viral Titer (HAZV)” value [11] of the same molecule?
Answer: 2%

Question: For `O=C(Nc1ccc(I)cc1)N1CCC(n2c(=O)[nH]c3c(Br)cccc32)CC1` [TH5487], which “reduction of ZIKV progeny particles produced by the organoids” value [12] is on record?
Answer: 60–70%

Question: And the IC50 ([13]; U87, Resazurin, all measured time points (24, 48 or 72 h), read-out: IC50 (toxicity profile, cellular viability))?
Answer: > 50 µM

Question: What about the CC50 ([13]; uninfected U87, 24 h) of the same molecule?
Answer: > 50 µM

Question: And the CC50 ([13]; uninfected U87, 48 h)?
Answer: > 50 µM

Question: And the CC50 ([13]; uninfected U87, 72 h)?
Answer: > 50 µM

Question: And the IC50 [14]?
Answer: 0.142 µM

Question: What about the “phenotypic rescue (retained structure of organoids)” value [15] of the same molecule?
Answer: phenotypic rescue

Question: What about the EC50 ([7]; ZIKV NS1 staining, read-out: EC50 [μM] Infected cells) of the same molecule?
Answer: 2.8 µM

Question: And the EC50 ([7]; end-point dilution assay, read-out: EC50 [μM] Viral titer)?
Answer: 2 µM

Question: And the IC50 ([7]; ZIKV, U87, MOI 10, 48 h, read-out: Antiviral on primary infection IC50)?
Answer: 2.8 µM

Question: What about the IC50 ([7]; ZIKV, U87, MOI 10, 48 h, read-out: Antiviral on titer (µM) IC50) of the same molecule?
Answer: 2 µM

Question: What about the EC50 ([8]; ZIKV, U87, MOI 10, 48 h, read-out: Viability (nuclei count) EC50) of the same molecule?
Answer: 35.2 µM

Question: What does the source list for `O=C(Nc1ccc(I)cc1)N1CCC(n2c(=O)[nH]c3cc(Cl)ccc32)CC1` [TH3289]?
Answer: CC50 at 24 h [1]: > 50 µM; CC50 at 48 h [1]: > 50 µM; CC50 at 72 h [1]: 34 µM; Viral Titer (ZIKV) (%) [2, 21]: 4%; Infected Cells (U87, ZIKV) (%) [2, 22]: 59%; inhibition at 10 µM [2, 23]: 96%; inhibition at 10 µM [2, 24]: 41%; Infected Cells (U87, ZIKV) [2]: 59%; Viral Titer (ZIKV) [2]: 4%; viability at 24 h, 10 µM [4]: 77%; IC50 [7, 25]: 2.8 µM; IC50 [7, 26]: 2.5 µM; EC50 [7, 27]: 2.8 µM; EC50 [7, 28]: 2.5 µM; EC50 [8, 29]: > 50 µM; viability at 48 h, 10 µM ([9]; 48 h): 92%; viability at 10 µM [9]: 92%; inhibition at 10 µM [11, 19]: 95%; inhibition at 10 µM [11, 20]: 58%; Infected Cells (SW13, HAZV) [11]: 42%; Viral Titer (HAZV) [11]: 5%

Question: What does the source list for `O=C(Nc1ccc(I)cc1)N1CCC(n2c(=O)[nH]c3cc(C(F)(F)F)ccc32)CC1` [TH5264, N-(4-iodophenyl)-4-[2-oxo-5-(trifluoromethyl)-2,3-dihydro-1H-1,3-benzodiazol-1-yl]piperidine-1-carboxamide]?
Answer: CC50 at 24 h [1]: > 50 µM; CC50 at 48 h [1]: > 50 µM; CC50 at 72 h [1]: 31.5 µM; Viral Titer (ZIKV) (%) [2, 21]: 2%; Infected Cells (U87, ZIKV) (%) [2, 22]: 46%; inhibition at 10 µM [2, 23]: 98%; inhibition at 10 µM [2, 24]: 54%; Infected Cells (U87, ZIKV) [2]: 46%; Viral Titer (ZIKV) [2]: 2%; viability at 24 h, 10 µM [4]: 94%; IC50 [7, 25]: 2.7 µM; IC50 [7, 26]: 3.2 µM; EC50 [7, 27]: 2.7 µM; EC50 [7, 28]: 3.2 µM; EC50 [8, 29]: 26.7 µM; viability at 48 h, 10 µM ([9]; 48 h): 86%; viability at 10 µM [9]: 86%
